This note sets out measurements from US10370436B2, “Anti-pseudomonas Psl binding molecules and uses thereof” (priority 2011, dated 2019).

The subject of data set [1] is P. aeruginosa strains PAO1, 33356, 6294, 6077. Put plainly: P. aeruginosa acute pneumonia model, survival. The class given is in vivo, BALB/c mice. As to the method:
FIG. 6 (A-G): Survival rates for animals treated with anti-Psl monoclonal antibodies Cam-003 or WapR-004 in a P. aeruginosa acute pneumonia model. (A-D) Animals were treated with Cam-003 at 45, 15, and 5 mg/kg and R347 at 45 mg/kg or PBS 24 hours prior to intranasal infection with (A) PAO1 (1.6×10^7 CFU), (B) 33356 (3×10^7 CFU), (C) 6294 (7×10^6 CFU), (D) 6077 (1×10^6 CFU). (E-F) Animals were treated with WapR-004 at 5 and 1 mg/kg as indicated followed by infection with 6077 at (E) (8×10^5 CFU), or (F) (6×10^5 CFU). Animals were carefully monitored for survival up to 72 hours (A-D) or for 120 hours (E-F). (G) Animals were treated with Cam-003 at 15 mg/kg or 5 mg/kg, or R347 at 15 mg/kg 24 hours prior to intranasal infection with PAO1 (4.4×10^7 CFU), and Cam-003 at 15 mg/kg 24 hours prior to intranasal infection with PAO1ΔpslA (3×10^7 CFU). In all experiments, PBS and R347 served as negative controls. Results are represented as Kaplan-Meier survival curves; differences in survival were calculated by the Log-rank test for Cam-003 vs. R347. (A) Cam-003 (45 mg/kg—P<0.0001; 15 mg/kg—P=0.0003; 5 mg/kg—P=0.0033). (B) Cam-003 (45 mg/kg—P=0.0012; 15 mg/kg—P=0.0012; 5 mg/kg—P=0.0373). (C) Cam-003 (45 mg/kg—P=0.0007; 15 mg/kg—P=0.0019; 5 mg/kg—P=0.0212). (D) Cam-003 (45 mg/kg—P<0.0001; 15 mg/kg—P<0.0001; 5 mg/kg—P=0.0001). Results are representative of at least two independent experiments. (E) [Cam-003 (5 mg/kg) vs. R347 (5 mg/kg): P=0.02; Cam-003 (1 mg/kg) vs. R347 (5 mg/kg): P=0.4848; WapR-004 (5 mg/kg) vs. R347 (5 mg/kg): P<0.0001; WapR-004 (1 mg/kg) vs. R347 (5 mg/kg): P=0.0886; WapR-004 (5 mg/kg) vs. Cam-003 (5 mg/kg): P=0.0017; WapR-004 (1 mg/kg) vs. Cam-003 (1 mg/kg): P=0.2468; R347 (5 mg/kg) vs. PBS: P=0.6676] (F) [Cam-003 (5 mg/kg) vs. R347 (5 mg/kg): P=0.0004; Cam-003 (1 mg/kg) vs. R347 (5 mg/kg): P<0.0001; WapR-004 (5 mg/kg) vs. R347 (5 mg/kg): P<0.0001; WapR-004 (1 mg/kg) vs. R347 (5 mg/kg): P<0.0001; WapR-004 (5 mg/kg) vs. Cam-003 (5 mg/kg): P=0.0002; WapR-004 (1 mg/kg) vs. Cam-003 (1 mg/kg): P=0.2628; R347 (5 mg/kg) vs. PBS: P=0.6676. (G) Cam-003 (15 mg/kg—P=0.0028; 5 mg/kg—P=0.0028)]. Results are representative of five independent experiments.
Antibodies or PBS were administered 24 hours before infection in each model. P. aeruginosa acute pneumonia, keratitis, and thermal injury infection models were performed as described (DiGiandomenico, A., et al., Proc Natl Acad Sci USA 104, 4624-4629 (2007)), with modifications. In the acute pneumonia model, BALB/c mice (The Jackson Laboratory) were infected with P. aeruginosa strains suspended in a 0.05 ml inoculum. In the thermal injury model, CF-1 mice (Charles River) received a 10% total body surface area burn with a metal brand heated to 92° C. for 10 seconds. Animals were infected subcutaneously with P. aeruginosa strain 6077 at the indicated dose. For organ burden experiments, acute pneumonia was induced in mice followed by harvesting of lungs, spleens, and kidneys 24 hours post-infection for determination of CFU.

Data set [2] concerns mucoid P. aeruginosa strains derived from cystic fibrosis patients. Put plainly: OPK assay, mucoid isolates. It is filed as cell-based, Pseudomonas aeruginosa. As to conditions: FIG. 2D. The procedure: This example describes the evaluation of prioritized human IgG1 antibodies to promote OPK of P. aeruginosa. […] OPK assays were performed as described in (DiGiandomenico, A., et al., Infect Immun 72, 7012-7021 (2004)), with modifications. Briefly, assays were performed in 96-well plates using 0.025 ml of each OPK component; P. aeruginosa strains; diluted baby rabbit serum; differentiated HL-60 cells; and monoclonal antibody. In some OPK assays, luminescent P. aeruginosa strains, which were constructed as described (Choi, K. H., et al., Nat Methods 2, 443-448 (2005)), were used. Luminescent OPK assays were performed as described above but with determination of relative luciferase units (RLUs) using a Perkin Elmer ENVISION Multilabel plate reader (Perkin Elmer).
The ability of Cam-003 to mediate OPK activity against representative non-mucoid strains from clinically relevant O-antigen serotypes and against mucoid P. aeruginosa strains which were derived from cystic fibrosis patients was evaluated.

For the substance “Cam-003: human IgG1 anti-Psl monoclonal antibody, VH SEQ ID NO: 1 and VL SEQ ID NO: 2”, the survival entry is listed as “Increased survival was not observed” in data set [1] (Psl mutant strain PAO1ΔpslA, FIG. 6G); 90% in data set [1] (strain 6077, 5 mg/kg, FIG. 6D); 80% in data set [1] (strain 33356, 5 mg/kg, FIG. 6B); 100% in data set [1] (strain PAO1, at 120 hours, FIG. 6G); “significant concentration-dependent survival” in data set [1] (strains PAO1 and 6294, 45, 15, 5 mg/kg 24 hours prior to intranasal infection, FIGS. 6A, 6C). Also, the “activity versus Cam-003-TM” value in data set [1] (larger infectious inoculum of 6077 (1.07×10^6), titrated antibody dose, FIG. 9E) is on record as “superior to Cam-003-TM”. In addition, the protection from challenge result in data set [1] (strains 33356 and 6077, 45 and 15 mg/kg, FIGS. 6B, 6D) is recorded as “complete protection”. The OPK activity result in data set [2] is reported as “mediated potent killing of all mucoid P. aeruginosa isolates that were tested”.
